Assay results from US20200148617A1, “GEMCABENE, PHARMACEUTICALLY ACCEPTABLE SALTS THEREOF, COMPOSITIONS THEREOF AND METHODS OF USE THEREFOR” (GEMPHIRE THERAPEUTICS INC., priority 2017, published 2020).

Legend:
[1] = 12-week placebo-controlled study of 600 mg QD in hypercholesterolemia patients on statins: safety and tolerability; type: in vivo; details: add-on to highest doses of background statins
Protocol: High-risk patients including some, but not all those with heterozygous familial hypercholesterolemia (HeFH) or atherosclerotic cardiovascular disease (ASCVD) on appropriate diet and stable statin therapy for at least 12 weeks and LDL-C ≥100 mg/dL (2.59 mmol/L) and triglycerides <500 mg/dL (5.65 mmol/L) were randomized into a 12-week, placebo-controlled, parallel-group, double-blind study to assess the efficacy of gemcabene calcium salt hydrate Crystal Form 1 (PSD90=52 μm) 600 mg (300-mg Tablet D×2) QD on LDL-C and other lipoproteins and hsCRP (high-sensitivity C-reactive protein). Safety and tolerability were also evaluated. The patients were stratified by high- or moderate-intensity statin therapy, with or without ezetimibe, with a target of 52 patients (26 patients on 600 mg gemcabene calcium salt hydrate Crystal Form 1 as administered by 2× Tablet D and 26 patients on placebo (“placebo”)) in each stratum. […] Mean baseline LDL-C for all patients was approximately 134 mg/dL (3.48 mmol/L) with most patients in the high-intensity statin stratum on atorvastatin and most patients in the moderate-intensity stratum on either simvastatin or atorvastatin.
33 of 54 patients (61.1%) in the Tablet D group and 24 of 51 patients (47.1%) in the placebo group who reported at least one AE during the study. The most prevalent AEs were those associated with infections. […]

[2] = tested on: hepatic mRNA expression in STAM™ mice; experiment: Murine STAM model of NASH-HCC: hepatic gene expression by quantitative RT-PCR; type: in vivo, mouse; details: for TNF-α mRNA expression (relative, normalized to vehicle-treated normal group): mean±SD, vehicle STAM 3.6±1.0; for ADH-4 mRNA expression levels (relative): vehicle STAM 0.9±0.3; for CRP mRNA levels (relative): vehicle STAM 1.0±0.2; for NF-κB mRNA expression levels (relative): vehicle STAM 1.1±0.1; for MMP-2 mRNA expression levels (relative): vehicle STAM 1.9±0.7; for CCR2 mRNA expression levels (relative): vehicle STAM 3.5±1.7; for MCP-1 mRNA expression levels (relative): vehicle STAM 3.6±1.7; for Sulf-2 mRNA expression levels (relative): vehicle STAM 5.2±1.2; for MIP-1β mRNA levels (relative): vehicle STAM 5.6±2.0; for TIMP-1 mRNA expression (relative): vehicle STAM 12.9±9.0
Protocol: A study was performed to evaluate the efficacy of gemcabene calcium salt hydrate Crystal Form 1 having a PSD90 of 52 μm as measured by laser light diffraction, in treating non-alcoholic steatosis hepatitis (NASH) in the murine STAM™ model of NASH-HCC.
Briefly, two-day old neonatal C57BL/6 male mice were administered low-dose streptozotocin (STZ), and were subsequently fed a HFC diet from 4 weeks of age. In this model, the mice typically develop liver steatosis and diabetes, reaching steatohepatitis within 3 weeks, followed by cirrhosis within 8 weeks, and carcinoma within 16 weeks. In the current study, mice were administered daily oral gemcabene calcium salt hydrate Crystal Form 1 starting at week 6 of age and were sacrificed at week 9. Telmisartan (with antisteatotic, anti-inflammatory and antifibrotic effects in STAM™ mice) was used as a positive comparator. A baseline reference group was administered vehicle at day 2 of age, and from week 6 of age was vehicle-treated and chow-fed. Five STAM™ groups were streptozocin-treated at day 2 of age and fed a HFC-diet beginning with week 4 of age. These STAM™ groups were orally administered from week 6 one of the following: water-vehicle, gemcabene calcium salt hydrate Crystal Form 1 at 30, 100 and 300 mg/kg daily, or telmisartan ([…]®) 10 mg/kg daily. Telmisartan ([…]®) was purchased from Boehringer Ingelheim GmbH (Germany) and dissolved in pure water. All groups were sacrificed at week 9. Vehicle, gemcabene calcium salt hydrate Crystal Form 1, or telmisartan were administered by oral gavage once daily.
Various gene expression markers of liver metabolism were evaluated by Real-Time PCR (RT-PCR) in all mouse groups. Total RNA was extracted from liver samples using RNAiso (Takara Bio, Japan) according to the manufacturer's instructions. One μg of RNA was reverse-transcribed using a reaction mixture containing 4.4 mM MgCl2 (F. Hoffmann-La Roche, Switzerland), 40 U RNase inhibitor (Toyobo, Japan), 0.5 mM dNTP (Promega, USA), 6.28 μM random hexamer (Promega), 5× first strand buffer (Promega), 10 mM dithiothreitol (Invitrogen, USA) and 200 U MMLV-RT (Invitrogen) in a final volume of 20 μL. The reaction was carried out for 1 hour at 37° C., followed by 5 minutes at 99° C. Real-time PCR was performed using real-time PCR DICE and SYBR premix Taq (Takara Bio). To calculate the relative mRNA expression level, the expression of each gene was normalized to that of reference gene 36B4 (gene symbol: Rplp0). Information of PCR-primer sets is described in Tables 20A-20C. Statistical analyses were performed using the Bonferroni Multiple Comparison Test on GraphPad Prism 6 (GraphPad Software Inc., USA). P values <0.05 were considered statistically significant. Results are expressed as mean±SD.
In order to calculate the relative mRNA expression level, the expression of each gene was normalized to that of the reference gene 36B4 (gene symbol: Rplp0). The gene expression levels were measured by quantitative RT-PCR. Results were normalized with values for the vehicle-treated normal group. […] Gemcabene calcium salt hydrate Crystal Form 1 (PSD90=52 μm) modulated the mRNA expression of many hepatic genes that play a significant role in the liver homeostasis and injury.

CC(C)(CCCCOCCCCC(C)(C)C(=O)[O-])C(=O)[O-].O.[Ca+2] [6-(5-Carboxy-5-methyl-hexyloxy)-2,2-dimethylhexanoic acid calcium (gemcabene calcium salt) hydrate Crystal Form 1]
muscle or liver related toxicities [1]: No evidence | CCR5 mRNA expression levels (relative) ([2]; gemcabene 100 mg/kg): 1.4±0.3 | TNF-α mRNA expression (relative, normalized to vehicle-treated normal group) ([2]; gemcabene 100 mg/kg): 2.0±0.8 | ACC-1 mRNA expression levels (relative) ([2]; gemcabene 100 mg/kg, telmisartan 10 mg/kg, vehicle STAM 0.9±0.2): 0.7±0.1 | ADH-4 mRNA expression levels (relative) ([2]; gemcabene 100 mg/kg): 0.6±0.1 | CRP mRNA levels (relative) ([2]; gemcabene 100 mg/kg): 0.6±0.1 | NF-κB mRNA expression levels (relative) ([2]; gemcabene 100 mg/kg): 0.9±0.1 | MMP-2 mRNA expression levels (relative) ([2]; gemcabene 100 mg/kg): 0.5±0.2 | CCR2 mRNA expression levels (relative) ([2]; gemcabene 100 mg/kg): 1.6±0.4 | MCP-1 mRNA expression levels (relative) ([2]; gemcabene 100 mg/kg): 1.7±0.7 | Sulf-2 mRNA expression levels (relative) ([2]; gemcabene 100 mg/kg): 3.8±0.7 | MIP-1β mRNA levels (relative) ([2]; gemcabene 100 mg/kg): 2.3±0.9 | TIMP-1 mRNA expression (relative) ([2]; gemcabene 100 mg/kg): 3.8±1.6 | CCR5 mRNA expression levels (relative) ([2]; gemcabene 300 mg/kg): 1.3±0.3 | TNF-α mRNA expression (relative, normalized to vehicle-treated normal group) ([2]; gemcabene 300 mg/kg): 1.9±0.7 | ADH-4 mRNA expression levels (relative) ([2]; gemcabene 300 mg/kg): 0.5±0.1 | CRP mRNA levels (relative) ([2]; gemcabene 300 mg/kg): 0.5±0.1 | NF-κB mRNA expression levels (relative) ([2]; gemcabene 300 mg/kg): 0.8±0.1 | MMP-2 mRNA expression levels (relative) ([2]; gemcabene 300 mg/kg): 0.9±0.2 | CCR2 mRNA expression levels (relative) ([2]; gemcabene 300 mg/kg): 1.7±0.7 | MCP-1 mRNA expression levels (relative) ([2]; gemcabene 300 mg/kg): 1.6±0.7 | Sulf-2 mRNA expression levels (relative) ([2]; gemcabene 300 mg/kg): 3.3±0.9 | MIP-1β mRNA levels (relative) ([2]; gemcabene 300 mg/kg): 2.8±1.4 | TIMP-1 mRNA expression (relative) ([2]; gemcabene 300 mg/kg): 4.4±2.1
